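How tested: cells in 96-well plates exposed to compound for 48 hours at five concentrations. TGI is the concentration that stops growth completely.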 Where a SMILES comes first, the peptide text is derived from it. [ ]: non-standard residue; d: D form. The star is where a group is joined. Boc = CC(C)(C)OC(=O)*; Lac = C[CH](O)C(=O)O; OBn = c1ccc(CO*)cc1
Tested on: 786-0 renal
Assay: NCI-60 cell line screen, 48 h

Going from `CC1=NN(c2nc(N)nc(/C(C#N)=C/c3ccccc3O)n2)C(C)(C)C1` to `CN(C)c1ccc(C2CC(c3ccc4ccccc4c3O)=NN2)cc1` (stereo unspecified), the TGI rises from 29.1 µM to 59.7 µM (2.1-fold).

Going from `Cc1c(-c2ccc(O)cc2)n(CCCCCCNCCOC(=O)NCCCc2ccc(N(CCCl)CCCl)cc2)c2ccc(O)cc12` to `COc1ccc(NC(=S)Nc2cc(C)cc(C)n2)cc1`, the TGI rises from 2.97 µM to greater than 100 µM.

`CN1CCc2cc3c(c4c2C1C(O)c1ccccc1-4)OCO3` (stereo unspecified) and `C1=CC2(C=CC13O[C@H](C1CCCCC1)[C@@H](C1CCCCC1)O3)O[C@H](C1CCCCC1)[C@@H](C1CCCCC1)O2` cannot be ordered by TGI: 62.2 µM for the first, greater than 50 µM for the second.

Tested on: A498 renal
Assay: NCI-60 cell line screen, 48 h

`CC1=NN(c2nc(N)nc(/C(C#N)=C/c3ccccc3O)n2)C(C)(C)C1` and `CN(C)c1ccc(C2CC(c3ccc4ccccc4c3O)=NN2)cc1` (stereo unspecified) are within 1.5-fold of each other in TGI: 62.9 µM for the first, 66.8 µM for the second.

Compared with `Cc1c(-c2ccc(O)cc2)n(CCCCCCNCCOC(=O)NCCCc2ccc(N(CCCl)CCCl)cc2)c2ccc(O)cc12`, `COc1ccc(NC(=S)Nc2cc(C)cc(C)n2)cc1` is higher in TGI: 28.7 µM for the first, greater than 100 µM for the second.

Going from `CN1CCc2cc3c(c4c2C1C(O)c1ccccc1-4)OCO3` (stereo unspecified) to `C1=CC2(C=CC13O[C@H](C1CCCCC1)[C@@H](C1CCCCC1)O3)O[C@H](C1CCCCC1)[C@@H](C1CCCCC1)O2`, the TGI rises from 8.45 µM to greater than 50 µM.

Tested on: A549 NSCLC
Assay: NCI-60 cell line screen, 48 h

First: CC1=NN(c2nc(N)nc(/C(C#N)=C/c3ccccc3O)n2)C(C)(C)C1
Second: CN(C)c1ccc(C2CC(c3ccc4ccccc4c3O)=NN2)cc1 (stereo unspecified)
The TGI of the first is lower: 31.5 µM for the first, greater than 100 µM for the second.

First: Cc1c(-c2ccc(O)cc2)n(CCCCCCNCCOC(=O)NCCCc2ccc(N(CCCl)CCCl)cc2)c2ccc(O)cc12
Second: COc1ccc(NC(=S)Nc2cc(C)cc(C)n2)cc1
The TGI of the first is lower: 3.93 µM for the first, greater than 100 µM for the second.

`CN1CCc2cc3c(c4c2C1C(O)c1ccccc1-4)OCO3` (stereo unspecified) and `C1=CC2(C=CC13O[C@H](C1CCCCC1)[C@@H](C1CCCCC1)O3)O[C@H](C1CCCCC1)[C@@H](C1CCCCC1)O2` cannot be ordered by TGI: 52.1 µM for the first, greater than 50 µM for the second.

Tested on: ACHN renal
Assay: NCI-60 cell line screen, 48 h

Compared with `CC1=NN(c2nc(N)nc(/C(C#N)=C/c3ccccc3O)n2)C(C)(C)C1`, `CN(C)c1ccc(C2CC(c3ccc4ccccc4c3O)=NN2)cc1` (stereo unspecified) is higher in TGI: 34.5 µM for the first, greater than 100 µM for the second.

Compared with `Cc1c(-c2ccc(O)cc2)n(CCCCCCNCCOC(=O)NCCCc2ccc(N(CCCl)CCCl)cc2)c2ccc(O)cc12`, `CN1CCc2cc3c(c4c2C1C(O)c1ccccc1-4)OCO3` (stereo unspecified) is higher in TGI: 14.1 µM for the first, greater than 100 µM for the second.

With `C1=CC2(C=CC13O[C@H](C1CCCCC1)[C@@H](C1CCCCC1)O3)O[C@H](C1CCCCC1)[C@@H](C1CCCCC1)O2` the TGI was greater than 50 µM.

Tested on: BT-549 breast
Assay: NCI-60 cell line screen, 48 h

Going from `CC1=NN(c2nc(N)nc(/C(C#N)=C/c3ccccc3O)n2)C(C)(C)C1` to `CN(C)c1ccc(C2CC(c3ccc4ccccc4c3O)=NN2)cc1` (stereo unspecified), the TGI rises from 67.7 µM to greater than 100 µM.

Going from `Cc1c(-c2ccc(O)cc2)n(CCCCCCNCCOC(=O)NCCCc2ccc(N(CCCl)CCCl)cc2)c2ccc(O)cc12` to `CC(OC(=O)C(Cc1ccccc1)NC(=O)C(Cc1ccccc1)NC(=O)OC(C)(C)C)C(=O)OCc1ccccc1` (stereo not drawn) (Boc-Phe-Phe-[Lac]-OBn; configuration not given here), the TGI rises from 26.7 µM to greater than 100 µM.

Compared with `COc1ccc(NC(=S)Nc2cc(C)cc(C)n2)cc1`, `CN1CCc2cc3c(c4c2C1C(O)c1ccccc1-4)OCO3` (stereo unspecified) is lower in TGI: greater than 100 µM for the first, 19.4 µM for the second.

For `C1=CC2(C=CC13O[C@H](C1CCCCC1)[C@@H](C1CCCCC1)O3)O[C@H](C1CCCCC1)[C@@H](C1CCCCC1)O2`, the TGI was greater than 50 µM.

Tested on: CAKI-1 renal
Assay: NCI-60 cell line screen, 48 h

Compared with `CC1=NN(c2nc(N)nc(/C(C#N)=C/c3ccccc3O)n2)C(C)(C)C1`, `CN(C)c1ccc(C2CC(c3ccc4ccccc4c3O)=NN2)cc1` (stereo unspecified) is higher in TGI: 36.9 µM for the first, greater than 100 µM for the second.

First: Cc1c(-c2ccc(O)cc2)n(CCCCCCNCCOC(=O)NCCCc2ccc(N(CCCl)CCCl)cc2)c2ccc(O)cc12
Second: CC(OC(=O)C(Cc1ccccc1)NC(=O)C(Cc1ccccc1)NC(=O)OC(C)(C)C)C(=O)OCc1ccccc1 (stereo not drawn) (Boc-Phe-Phe-[Lac]-OBn; configuration not given here)
The TGI of the first is lower: 25.7 µM for the first, greater than 100 µM for the second.

Compared with `COc1ccc(NC(=S)Nc2cc(C)cc(C)n2)cc1`, `CN1CCc2cc3c(c4c2C1C(O)c1ccccc1-4)OCO3` (stereo unspecified) is lower in TGI: greater than 100 µM for the first, 18.2 µM for the second.

Work on `C1=CC2(C=CC13O[C@H](C1CCCCC1)[C@@H](C1CCCCC1)O3)O[C@H](C1CCCCC1)[C@@H](C1CCCCC1)O2` yielded a TGI greater than 50 µM.

Tested on: CCRF-CEM leukemia
Assay: NCI-60 cell line screen, 48 h

Compared with `CC1=NN(c2nc(N)nc(/C(C#N)=C/c3ccccc3O)n2)C(C)(C)C1`, `CN(C)c1ccc(C2CC(c3ccc4ccccc4c3O)=NN2)cc1` (stereo unspecified) is 2.3-fold higher in TGI: 35.5 µM for the first, 83.3 µM for the second.

First: Cc1c(-c2ccc(O)cc2)n(CCCCCCNCCOC(=O)NCCCc2ccc(N(CCCl)CCCl)cc2)c2ccc(O)cc12
Second: CC(OC(=O)C(Cc1ccccc1)NC(=O)C(Cc1ccccc1)NC(=O)OC(C)(C)C)C(=O)OCc1ccccc1 (stereo not drawn) (Boc-Phe-Phe-[Lac]-OBn; configuration not given here)
The TGI of the first is lower: 6.67 µM for the first, greater than 100 µM for the second.

Compared with `COc1ccc(NC(=S)Nc2cc(C)cc(C)n2)cc1`, `CN1CCc2cc3c(c4c2C1C(O)c1ccccc1-4)OCO3` (stereo unspecified) is lower in TGI: greater than 100 µM for the first, 9.69 µM for the second.

Tested on: COLO 205 colon
Assay: NCI-60 cell line screen, 48 h

Compared with `CC1=NN(c2nc(N)nc(/C(C#N)=C/c3ccccc3O)n2)C(C)(C)C1`, `COc1ccc(NC(=S)Nc2cc(C)cc(C)n2)cc1` is higher in TGI: 31.5 µM for the first, greater than 100 µM for the second.

With `Cc1c(-c2ccc(O)cc2)n(CCCCCCNCCOC(=O)NCCCc2ccc(N(CCCl)CCCl)cc2)c2ccc(O)cc12` the TGI was 7.57 µM.

Reference: PubChem BioAssay (NCI)
